According to US20250230462A1, “PPO2 POLYPEPTIDE HAVING TOLERANCE TO PPO INHIBITOR HERBICIDE AND APPLICATION” (priority 2022, published 2025):

Legend:
[1] = system: rice seedlings edited at the OsPPO2 L422M/F442M site and wild-type strain; assay: Tolerance of gene-edited homozygous OsPPO2 L422M/F442M rice seedlings (4-leaf stage)
[2] = system: Arabidopsis thaliana overexpressing rice OsPPO2 WT or L422M/F442M; assay: Resistance test of Arabidopsis thaliana seeds overexpressing rice OsPPO2 on MS media containing PPO inhibitor herbicides; assay type: in vivo; conditions: for tolerance of L422M/F442M overexpression relative to overexpression of the wild type PPO2: FIGS. 4-6, different concentrations; for resistance of plants at higher application concentrations: 2 μM, 1 μM and 1 μM (compound A, flumioxazin, saflufenacil respectively); for tolerance/resistance of plants compared with wild-type Arabidopsis thaliana: plants overexpressing OsPPO2 L422M/F442M and OsPPO2 WT, levels similar at 50 nM, 10 nM and 40 nM (compound A, flumioxazin, saflufenacil respectively)
Procedure: In order to rapidly verify the tolerance of rice OsPPO2 L422M/F442M mutants to different compounds, vectors for overexpressing wild-type and mutant rice PPO2 genes were constructed by conventional methods and overexpressed in Arabidopsis thaliana.
The obtained Arabidopsis thaliana seeds overexpressing rice OsPPO2 mutants and wild types were tested for resistance on MS media (petri dishes) that contained PPO inhibitor herbicidal compounds of various concentrations.

[3] = overexpressing OsPPO2 L422M/F442M

CCOC(=O)C1(C)CC(c2cc(-n3c(=O)cc(C(F)(F)F)n(C)c3=O)c(F)cc2Cl)=NO1 (stereo not shown)
crop safety when other PPO inhibiting herbicides were applied [1]: excellent crop safety

CCOC(=O)COc1ncccc1Oc1cc(-n2c(=O)cc(C(F)(F)F)n(C)c2=O)c(F)cc1Cl [Epyrifenacil, [3-[2-chloro-4-fluoro-5-(1-methyl-6-trifluoromethyl-2,4-dioxo-1,2,3,4-tetrahydropyrimidin-3-yl)phenoxy]-2-pyridyloxy] ethyl acetate]
crop safety when other PPO inhibiting herbicides were applied [1]: excellent crop safety

Cc1nn(-c2cc(CC(Cl)C(=O)O)c(Cl)cc2F)c(=O)n1C(F)F (stereo not shown) [carfentrazone]
crop safety when other PPO inhibiting herbicides were applied [1]: excellent crop safety

C#CCN1C(=O)COc2cc(F)c(N3C(=O)C4=C(CCCC4)C3=O)cc21 [flumioxazin]
crop safety when other PPO inhibiting herbicides were applied [1]: excellent crop safety | tolerance of L422M/F442M overexpression relative to overexpression of the wild type PPO2 [2]: stronger tolerance | resistance of plants at higher application concentrations [2, 3]: still exhibited resistance | resistance of plants at higher application concentrations ([2]; overexpressing OsPPO2 WT): no difference from the wild-type Arabidopsis thaliana controls | tolerance/resistance of plants compared with wild-type Arabidopsis thaliana [2]: certain tolerance/resistance

CS(=O)(=O)NC(=O)c1cc(Oc2ccc(C(F)(F)F)cc2Cl)ccc1[N+](=O)[O-] [fomesafen]
crop safety when other PPO inhibiting herbicides were applied [1]: excellent crop safety

CCOc1cc(Oc2ccc(C(F)(F)F)cc2Cl)ccc1[N+](=O)[O-] [oxyfluorfen]
crop safety when other PPO inhibiting herbicides were applied [1]: excellent crop safety

C#CCN(C)c1c(C#N)cnn1-c1nn2c(c1Cl)CCCC2 [pyraclonil]
crop safety when other PPO inhibiting herbicides were applied [1]: excellent crop safety

CC(C)N(C)S(=O)(=O)NC(=O)c1cc(-n2c(=O)cc(C(F)(F)F)n(C)c2=O)c(F)cc1Cl [saflufenacil]
crop safety when other PPO inhibiting herbicides were applied [1]: excellent crop safety | tolerance of L422M/F442M overexpression relative to overexpression of the wild type PPO2 [2]: stronger tolerance | resistance of plants at higher application concentrations [2, 3]: still exhibited resistance | resistance of plants at higher application concentrations ([2]; overexpressing OsPPO2 WT): no difference from the wild-type Arabidopsis thaliana controls | tolerance/resistance of plants compared with wild-type Arabidopsis thaliana [2]: certain tolerance/resistance

Cc1nn(-c2cc(NS(C)(=O)=O)c(Cl)cc2Cl)c(=O)n1C(F)F [sulfentrazone]
crop safety when other PPO inhibiting herbicides were applied [1]: excellent crop safety

COC(=O)CCNC(=O)C(C)Sc1cc(-n2c(=O)cc(C(F)(F)F)n(C)c2=O)c(F)cc1Cl (stereo not shown) [tiafenacil]
crop safety when other PPO inhibiting herbicides were applied [1]: excellent crop safety

C#CCN1C(=O)C(F)(F)Oc2cc(F)c(-n3c(=O)n(C)c(=S)n(C)c3=O)cc21 [trifludimoxazin]
crop safety when other PPO inhibiting herbicides were applied [1]: excellent crop safety
